In ChEMBL document CHEMBL1125280, “Direct prediction of dissociation constants (pKa's) of clonidine-like imidazolines, 2-substituted imidazoles, and 1-methyl-2-substituted-imidazoles from 3D structures using a comparative molecular field analysis (CoMFA) approach” (J Med Chem, 1991):

Experiment: Ionization constant (pKa)
Type: physicochemical

Row | Structure (SMILES) | pKa
1 | Cc1cc(Br)cc(C)c1N=C1NCCN1 | 10.2
2 | Fc1cccc(F)c1N=C1NCCN1 | 8.18
3 | Fc1ncc[nH]1 | 2.4
4 | O=[N+]([O-])c1ncc[nH]1 [AZOMYCIN] | -0.81
5 | Clc1cc(Br)cc(Cl)c1N=C1NCCN1 | 7.72
6 | Cn1ccnc1F | 2.3
7 | Clc1ccc(N=C2NCCN2)c(Cl)c1 | 8.73
8 | Cc1cc(Cl)cc(C)c1N=C1NCCN1 | 10.2
9 | Cc1ccc(NC2=NCCN2)c(Cl)c1 [TOLONIDINE] | 9.41
10 | Nc1ncc[nH]1 | 8.46
11 | Cc1cc(C)c(N=C2NCCN2)c(C)c1 | 10.8
12 | Cc1cc(Cl)cc(Cl)c1N=C1NCCN1 | 9.03
13 | c1ccn(-c2ncc[nH]2)c1 | 5.36
14 | Cn1ccnc1N | 8.54
15 | c1ccc(-c2ncc[nH]2)cc1 [2-PHENYLIMIDAZOLE] | 6.48
16 | Cc1ccccc1N=C1NCCN1 | 10.2
17 | Brc1ncc[nH]1 | 3.79
18 | Cc1ncc[nH]1 | 7.86
19 | CSc1ncc[nH]1 | 5.95
20 | Brc1cc(Br)c(N=C2NCCN2)c(Br)c1 | 7.46
21 | COc1cc(Cl)c(N=C2NCCN2)c(Cl)c1 | 8.57

Row | Structure (SMILES) | pKa
22 | Clc1cccc(N=C2NCCN2)c1Cl | 8.55
23 | Cc1cc(Cl)c(N=C2NCCN2)c(Cl)c1 | 8.29
24 | c1ccc(NC2=NCCN2)cc1 | 10.1
25 | Cc1ccc(N=C2NCCN2)c(C)c1 | 10.6
26 | Brc1cccc(Br)c1N=C1NCCN1 | 7.8
27 | Cn1ccnc1Br | 3.82
28 | O=[N+]([O-])c1cc(Cl)c(N=C2NCCN2)c(Cl)c1 | 6.86
29 | Fc1cccc(Cl)c1N=C1NCCN1 | 8.01
30 | Clc1ccc(Cl)c(N=C2NCCN2)c1 | 8.5
31 | Clc1ncc[nH]1 | 3.55
32 | Cn1ccnc1 [1-METHYLIMIDAZOLE] | 7.12
33 | Cc1cc(Cl)ccc1N=C1NCCN1 | 9.99
34 | Cc1cccc(C)c1N=C1NCCN1 | 10.5
35 | Cc1cc(C)c(N=C2NCCN2)c(Cl)c1 | 9.59
36 | Clc1ccccc1N=C1NCCN1 | 9.15
37 | Cc1cccc(Cl)c1N=C1NCCN1 | 9.4
38 | CCc1ncc[nH]1 | 7.73
39 | CCc1cccc(CC)c1NC1=NCCN1 | 10.6
40 | Clc1cccc(Br)c1N=C1NCCN1 | 7.93
41 | Clc1cc(Cl)c(N=C2NCCN2)c(Cl)c1 | 7.75
42 | Cn1ccnc1[N+](=O)[O-] | -0.48
